Here are results for 11 molecules from EP4389751A1, “HETEROCYCLIC COMPOUNDS AND USES THEREOF” (Kumquat Biosciences Inc., priority 2021, dated 2024).

The IC50 is the concentration needed to halve the response being measured.

For assay [1], the target named is T1, KRAS protein (His-tagged GDP-loaded G12S 1-169) (Homo sapiens, UniProt P01116, G12S).
T1 construct: His-tagged GDP-loaded G12S 1-169
The assay can be described thus: Covalent modification of KRAS protein, intact-protein LC-MS. In kind it is binding. As to conditions: 24hrs at room temperature, KRAS protein ~2 µM. On the procedure:
Test compounds are prepared as 10 mM stock solutions in DMSO (Fisher cat#BP231-100). KRAS protein (His-tagged GDP-loaded wildtype 1-169, His-tagged GDP-loaded G12S 1-169 or His-tagged GDP-loaded G12D 1-169) is diluted to ~2 µM in appropriate buffer (e.g., a Hepes buffer at physiological conditions). For testing KRAS modification, compounds are diluted to 50X final test concentration in DMSO in 96-well storage plates. 2 µl of the diluted 50X compounds are added to appropriate wells in the PCR plate (Fisher cat#AB-0800). […] of the stock protein solution is added to each well of the 96-well PCR plate. Reactions are mixed carefully. The plate is sealed well with aluminum plate seal, and stored in drawer at room temperature for 24hrs. 5 µl of 2% formic acid (Fisher cat#A1 17-50) in MilliQ H2O is then added to each well followed by mixing with a pipette. The plate is then resealed with aluminum seal and stored until mass spectrometry analysis.
The extent of covalent modification of KRAS proteins was determined by liquid chromatography electrospray mass spectrometry analysis of the intact proteins on a Thermo Q-Exactive Plus mass spectrometer. 20 µl of sample was injected onto a bioZen 3.6 µm Intact C4 column (Phenomenex cat#00B-4767-AN) placed in a column oven set to 40°C and separated using a suitable LC gradient from -20% to ~60% solvent B. Solvent A was 0.1% formic acid and solvent B was 0.1% formic acid in acetonitrile. HESI source settings were set to 40, 5 and 1 for the sheath, auxiliary and sweep gas flow, respectively. The spray voltage was 4 kV, and the capillary temperature was 320°C. S-lens RF level was 50 and auxiliary gas heater temperature was set to 200°C. The mass spectrometry was acquired using a scan range from 650 to 1750 m/z using positive polarity at a mass resolution of 70,000, AGC target of 1e6 ions and maximum injection time of 250ms. The recorded protein mass spectrum was deconvoluted from the raw data file using Protein Deconvolution v4.0 (Thermo). The protein mass and adduct masses were exported with their peak intensities. The peak intensities for the unmodified and modified protein were used to calculate the percent covalent modification of the KRAS protein based on the following equation: %KRAS protein modification = ((KRAS-compound) / (KRAS) + (KRAS-Compound)) *100.

Assay [2] deals with T2, K-Ras G12S (Homo sapiens, UniProt P01116, G12S).
T2 construct: made in house; host or cells: E. coli (e.g., BL21 (DE3))
The assay can be described thus: HTRF assay of the K-Ras / SOS1 interaction. As to conditions: IC50 (against K-Ras G12D) to IC50 (against K-Ras G12S). The format is biochemical. Summed up: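 GST-K-Ras G12S with anti-GST-Eu donor and His-hSOS1 with anti-6His-XL665 acceptor in ~5 mM HEPES pH 7.4, ~150 mM NaCl, 1 mM DTT, 0.05% BSA, 0.0025% Igepal. Read after ~10 min or longer; IC50 from 665/620 nm ratio, duplicates at 10 µM down to 0.01 µM.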
A general note: Time-resolved FRET reads energy transfer from a long-lived donor to a nearby acceptor.

For assay [3], the system named is GP2D cells. The assay can be described thus: Cell proliferation assay (CellTiter-Glo), K-Ras G12D cells. As to conditions: read-out: Inhibition of GP2D Cells (IC50). In kind it is cell-based. Summed up:
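GP2D (K-Ras G12D) cells seeded in DMEM with 2 mM glutamine and 10% FBS, then dosed next day with a dilution series (e.g., 9-point 3-fold). Viability read by CellTiter-Glo luminescence after about 5 days. IC50 from four-parameter fit.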

Where two headings read alike, the source gives them in different places.

Take `N#Cc1cccn1C(=O)N1CCN(c2nc(OC[C@@]34CCCN3C[C@H](F)C4)nc3c(F)c(-c4ccc(F)c5sc(N)nc45)c(Cl)cc23)CC(F)(F)C1` [Compound A114, 1-(4-(7-(2-amino-7-fluorobenzo[d]thiazol-4-yl)-6-chloro-8-fluoro-2-(((2R,7aS)-2-fluorotetrahydro-1H-pyrrolizin-7a(5H)-yl)methoxy)quinazolin-4-yl)-6,6-difluoro-1,4-diazepane-1-carbonyl)-1H-pyrrole-2-carbonitrile]: the “% G12S Modification at 24 hr.” value in assay [1] is recorded as “+++ (+++ indicates greater than 20% labelling)”. For the same molecule, in assay [2], the “Ratio of IC50 KRAS G12D vs. IC50 KRAS G12S” value (shortened to “Ratio”) is recorded as “A (A: indicates that the ratio of IC50 against KrasG12D vs. IC50 against KrasG12S is 1-fold or greater)”.
For `Nc1nc2c(-c3c(Cl)cc4c(N5CCCC6(CN(C(=O)n7cncn7)CCO6)C5)nc(OC[C@@]56CCCN5C[C@H](F)C6)nc4c3F)ccc(F)c2s1` (stereo partly drawn) [Compound A125, (8-(7-(2-amino-7-fluorobenzo[d]thiazol-4-yl)-6-chloro-8-fluoro-2-(((2R,7aS)-2-fluorotetrahydro-1H-pyrrolizin-7a(5H)-yl)methoxy)quinazolin-4-yl)-1-oxa-4,8-diazaspiro [5.5]undecan-4-yl)(1H-1,2,4-triazol-1-yl)methanone], in that order: “++ (++ indicates between about 1%- 20% labelling)” and “A (A: indicates that the ratio of IC50 against KrasG12D vs. IC50 against KrasG12S is 1-fold or greater)”.
As to `N#Cc1c(N)sc2c(F)ccc(-c3ncc4c(N5CCOC6(CN(C(=O)n7cncn7)C6)C5)nc(OC[C@@]56CCCN5C[C@H](F)C6)nc4c3F)c12` [Compound A161, 4-(4-(2-(1H-1,2,4-triazole-1-carbonyl)-5-oxa-2,8-diazaspiro[3.5]nonan-8-yl)-8-fluoro-2-(((2R,7aS)-2-fluorotetrahydro-1H-pyrrolizin-7a(5H)-yl)methoxy)pyrido[4,3-d]pyrimidin-7-yl)-2-amino-7-fluorobenzo[b]thiophene-3-carbonitrile], the “% G12S Modification at 24 hr.” value in assay [1] was “+++ (+++ indicates greater than 20% labelling)”. For the same molecule, in assay [2], the “Ratio” value is given as “A (A: indicates that the ratio of IC50 against KrasG12D vs. IC50 against KrasG12S is 1-fold or greater)”.
For `N#Cc1c(N)sc2c(F)ccc(-c3c(Cl)cc4c(OC5CCCCN(C(=O)n6cncn6)C5)nc(OC[C@@]56CCCN5C[C@H](F)C6)nc4c3F)c12` (stereo partly drawn) [Compound A169, 4-(4-((1-(1H-1,2,4-triazole-1-carbonyl)azepan-3-yl)oxy)-6-chloro-8-fluoro-2-(((2R,7aS)-2-fluorotetrahydro-1H-pyrrolizin-7a(5H)-yl)methoxy)quinazolin-7-yl)-2-amino-7-fluorobenzo[b]thiophene-3-carbonitrile], in that order: “+++ (+++ indicates greater than 20% labelling)” and “A (A: indicates that the ratio of IC50 against KrasG12D vs. IC50 against KrasG12S is 1-fold or greater)”.
For `CN1CCC[C@H]1COc1nc(N2CCOC3(CN(C(=O)n4cncn4)C3)C2)c2cc(Cl)c(-c3ccc(F)c4sc(N)c(C#N)c34)c(F)c2n1` [Compound A182, 4-(4-(2-(1H-1,2,4-triazole-1-carbonyl)-5-oxa-2,8-diazaspiro[3.5]nonan-8-yl)-6-chloro-8-fluoro-2-(((S)-1-methylpyrrolidin-2-yl)methoxy)quinazolin-7-yl)-2-amino-7-fluorobenzo[b]thiophene-3-carbonitrile], in that order: “++ (++ indicates between about 1%- 20% labelling)” and “A (A: indicates that the ratio of IC50 against KrasG12D vs. IC50 against KrasG12S is 1-fold or greater)”.
On to `Nc1nc2c(-c3c(Cl)cc4c(N5CCC6(CCN(C(=O)n7cncn7)CC6)C5)nc(OC[C@@]56CCCN5C[C@H](F)C6)nc4c3F)ccc(F)c2s1` [Compound A198, (2-(7-(2-amino-7-fluorobenzo[d]thiazol-4-yl)-6-chloro-8-fluoro-2-(((2R,7aS)-2-fluorotetrahydro-1H-pyrrolizin-7a(5H)-yl)methoxy)quinazolin-4-yl)-2,8-diazaspiro[4.5]decan-8-yl)(1H-1,2,4-triazol-1-yl)methanone], for which the “% G12S Modification at 24 hr.” value in assay [1] was “+++ (+++ indicates greater than 20% labelling)”. In assay [2], the “Ratio” value is recorded as “A (A: indicates that the ratio of IC50 against KrasG12D vs. IC50 against KrasG12S is 1-fold or greater)”.
As to `N#Cc1c(N)sc2c(F)ccc(-c3c(Cl)cc4c(O[C@@H]5CCN(C(=O)n6cncn6)C5)nc(OCC56CCCN5C[C@H](F)C6)nc4c3F)c12` (stereo partly drawn) [Compound A213, 4-(4-(((R)-1-(1H-1,2,4-triazole-1-carbonyl)pyrrolidin-3-yl)oxy)-6-chloro-8-fluoro-2-(((2R)-2-fluorotetrahydro-1H-pyrrolizin-7a(5H)-yl)methoxy)quinazolin-7-yl)-2-amino-7-fluorobenzo[b]thiophene-3-carbonitrile], in assay [1], the “% G12S Modification at 24 hr.” value is “++ (++ indicates between about 1%- 20% labelling)”. Further, in assay [2], the “Ratio” value was “A (A: indicates that the ratio of IC50 against KrasG12D vs. IC50 against KrasG12S is 1-fold or greater)”.
Consider `Nc1nc2c(-c3c(Cl)cc4c(NC5CCN(C(=O)n6cc(F)cn6)CC5)nc(OC[C@@]56CCCN5C[C@H](F)C6)nc4c3F)ccc(F)c2s1` [Compound A291, (4-((7-(2-amino-7-fluorobenzo[d]thiazol-4-yl)-6-chloro-8-fluoro-2-(((2R,7aS)-2-fluorotetrahydro-1H-pyrrolizin-7a(5H)-yl)methoxy)quinazolin-4-yl)amino)piperidin-1-yl)(4-fluoro-1H-pyrazol-1-yl)methanone], for which the concentration for half-maximal inhibition (IC50) in assay [3] (GP2D cells (K-Ras G12D)) is 1 to 10 µM. For the same molecule, the “Ratio” value in assay [2] is reported as “A (A: indicates that the ratio of IC50 against KrasG12D vs. IC50 against KrasG12S is 1-fold or greater)”.
For `Nc1nc2c(-c3c(Cl)cc4c(N5CCC6CN(C(=O)n7cncn7)CC6C5)nc(OC[C@@]56CCCN5C[C@H](F)C6)nc4c3F)ccc(F)c2s1` (stereo partly drawn) [Compound A294, (5-(7-(2-amino-7-fluorobenzo[d]thiazol-4-yl)-6-chloro-8-fluoro-2-(((2R,7aS)-2-fluorotetrahydro-1H-pyrrolizin-7a(5H)-yl)methoxy)quinazolin-4-yl)octahydro-2H-pyrrolo[3,4-c]pyridin-2-yl)(1H-1,2,4-triazol-1-yl)methanone] the same measures were 1 to 10 µM and “A (A: indicates that the ratio of IC50 against KrasG12D vs. IC50 against KrasG12S is 1-fold or greater)”.
Take `N#Cc1c(N)sc2c(F)ccc(-c3c(Cl)cc4c(O[C@H]5C[C@H]6CC[C@@H](C5)N6C(=O)n5cncn5)nc(OC[C@@]56CCCN5C[C@H](F)C6)nc4c3F)c12` [Compound A300, 4-(4-(((1R,3r,5S)-8-(1H-1,2,4-triazole-1-carbonyl)-8-azabicyclo[3.2.1]octan-3-yl)oxy)-6-chloro-8-fluoro-2-(((2R,7aS)-2-fluorotetrahydro-1H-pyrrolizin-7 a(5H)-yl)methoxy)quinazolin-7-yl)-2-amino-7-fluorobenzo[b]thiophene-3-carbonitrile]: the IC50 in assay [3] (GP2d) fell in the range of 1 to 10 µM. Also, the “Ratio” value in assay [2] is reported as “A (A: indicates that the ratio of IC50 against KrasG12D vs. IC50 against KrasG12S is 1-fold or greater)”.
Take `Nc1nc2c(-c3c(Cl)cc4c(N5CCC6(CC5)CN(C(=O)n5cnc(F)c5)C6)nc(OC[C@@]56CCCN5C[C@H](F)C6)nc4c3F)ccc(F)c2s1` [Compound A303, (7-(7-(2-amino-7-fluorobenzo[d]thiazol-4-yl)-6-chloro-8-fluoro-2-(((2R,7aS)-2-fluorotetrahydro-1H-pyrrolizin-7a(5H)-yl)methoxy)quinazolin-4-yl)-2,7-diazaspiro[3.5]nonan-2-yl)(4-fluoro-1H-imidazol-1-yl)methanone]: the IC50 in assay [3] (GP2D cells (K-Ras G12D)) was in the range of 1 to 10 µM. For the same molecule, the “Ratio” value in assay [2] was “A (A: indicates that the ratio of IC50 against KrasG12D vs. IC50 against KrasG12S is 1-fold or greater)”.
